Like-named read-outs stand apart in the source and are kept apart here.
Assays:
mouse μ opioid receptor [1] = molecular target: T1, mouse μ opioid receptor (Mus musculus, UniProt P42866); experiment: cell-based; details: for Emax: HEK293, read-out: Max Inhibition
mouse μ opioid receptor [2] = molecular target: T1, mouse μ opioid receptor; experiment: biochemical; format: binding

T1 sequence (P42866 whole entry): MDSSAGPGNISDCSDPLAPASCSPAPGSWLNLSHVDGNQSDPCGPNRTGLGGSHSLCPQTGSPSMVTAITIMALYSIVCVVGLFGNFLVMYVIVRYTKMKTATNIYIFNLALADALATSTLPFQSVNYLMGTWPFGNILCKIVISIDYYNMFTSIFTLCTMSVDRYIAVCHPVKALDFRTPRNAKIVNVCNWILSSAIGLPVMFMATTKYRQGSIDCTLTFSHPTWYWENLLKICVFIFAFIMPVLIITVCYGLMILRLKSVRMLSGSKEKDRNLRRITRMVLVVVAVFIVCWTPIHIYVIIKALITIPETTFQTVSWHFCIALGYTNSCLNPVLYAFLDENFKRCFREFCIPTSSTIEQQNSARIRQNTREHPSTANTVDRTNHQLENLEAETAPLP

Compound	IC50 (mouse μ opioid receptor [1])	Emax (mouse μ opioid receptor [1])	Ki (mouse μ opioid receptor [2])	Max Inhibition (mouse μ opioid receptor [1])	IC50 (mouse μ opioid receptor [1]; read-out: IC50 ± SEM)
Oc1ccc2c(c1)[C@@]13CCCC[C@@]1(O)[C@@H](C2)N(CC1CCC1)CC3 [Butorphanol]	3 ± 2 nM	58 ± 5%	–	–	–
C[C@H]1[C@H]2Cc3ccc(O)cc3[C@]1(C)CCN2CC1CC1 [Cyclazocine]	21 ± 8 nM	37 ± 2%	0.22 ± 0.02 nM	–	–
C[C@@H](NC(=O)[C@@H](N)Cc1ccc(O)cc1)C(=O)NCC(=O)N(C)[C@@H](Cc1ccccc1)C(=O)NCCO [DAMGO]	–	–	–	58 ± 5%	–
C[C@@]12CCCCC[C@@H](Cc3ccc(O)cc31)[C@@H]2N [Dezocine]	1.3 ± 0.6 nM	43 ± 2%	–	–	–
C[C@H]1[C@H]2Cc3ccc(O)cc3[C@]1(C)CCN2C [Metazocine]	2 ± 0.1 nM	41 ± 4%	–	–	–
C=CCN1CC[C@]23c4c5ccc(O)c4O[C@H]2[C@@H](O)C=C[C@H]3[C@H]1C5 [Nalorphine]	2.7 ± 1.4 nM	50 ± 2%	–	–	–
C=C1C[C@H](C)[C@H]2[C@H]3Cc4ccc(O)cc4[C@@]2(CCN3CC2CCC2)C1 [Xorphanol]	–	–	–	29 ± 2 ⊕⊕^## %	3.4 ± 1.7 nM

Reference: article PMC140036 (BMC Pharmacology, 2003)
